Test results taken from paper PMC5641083, “Blockage of FOXP3 transcription factor dimerization and FOXP3/AML1 interaction inhibits T regulatory cell activity: sequence optimization of a peptide inhibitor” (Oncotarget, 2017).
Where a SMILES comes first, the peptide text is derived from it. [ ]: non-standard residue; d: D form.

Assays:
Treg cells = assay: Treg pre-treated with peptide, then Treg suppression assay; assay type: cell-based; conditions: Treg incubated with peptide at 20 μM for 24 hours, washed
From the text: (§1) FOXP3 is critical for the development and function of Tregs, but also, FOXP3 can be transiently expressed in effector T cells after TCR stimulation leading to hyporesponsiveness of the effector T cell. […] We speculate that the Foxp3 inhibitory peptides may work at two levels: (i) reducing Treg function and (ii) releasing the brake of FOXP3 transient expression on effector T cells. Thus, we studied the effect of CM-1315 in T cell proliferation and IL-2 and IFN-γ production in effector T cells in response to anti-CD3 stimulation. The original P60, the optimized peptide CM-1315 and a control peptide were tested. […] We also studied the effect of the peptides directly in Tregs. Thus, freshly isolated Treg cells were pre-treated with the peptides for 24 h, and after extensive washing, they were used in conventional Treg suppression assay in coculture with effector T cells and anti-CD3 stimulation.
(§2) Supplementary Figure 4: Effect of Foxp3 inhibitory peptides in effector T cells alone. […] T cell proliferation (A) and IL-2 and IFN-γ (B and C) production in response to anti-CD3 stimulation was measured by 3H-thymidine incorporation and by ELISA respectively.
(§3) Supplementary Figure 5: Effect of FOXP3 inhibitory peptides in Treg cells. […] T cell proliferation was measured by 3H-thymidine incorporation assay. […]

[1] = system: AH1-specific IFN-γ producing cells; assay: AH1 immunization in CD25+ depleted mice, IFN-γ ELISPOT; assay type: in vivo; conditions: mice depleted of CD25+ T cells, CM-1315 day 1 to day 7
From the text: We also studied the effect of CM-1315 peptide in vivo to improve the immune response after immunization with AH1 peptide in naïve mice and in mice depleted of CD25+ T cells. In this experiment, depletion of CD25+ T cells improved the number of AH1-specific IFN-γ producing cells.
Supplementary Figure 6: In vivo the effect of CM-1315 peptide to improve the immunogenicity of AH1 peptide vaccine.
AH1 peptide, encompassing a cytotoxic T cell epitope for H-2Ld MHC class I molecule, was emulsified in Incomplete Freund adjuvant as previously described and used to immunize groups of naïve mice and in mice depleted of CD25+ T cells (n = 4). A group of CD25 depleted mice was immunized with AH1 and treated with CM-1315 peptide from day 1 to day 7 after immunization. Ten days after, immune response against AH1 was measured by ELISPOT assay to quantify the number of IFN-γ producing cells.
(1 picture or pasted object on this page, not shown here)

[2] = Metabolic stability in mouse liver microsomes; assay type: in vitro ADME; conditions: 1 μM, estimated by first order kinetics
Procedure: (§4) Metabolic stability was measured by Wuxi AppTech (Shanghai, China). Briefly, peptides (1 μM, 5% MeOH in potassium phosphate buffer) were incubated with human (catalogue no. 452161 from BD Gentest) and mouse (catalogue no. M1000, Xenotech) liver microsomes at 37°C for 10 min. Liver microsomes were at a final assay concentration of 0.7 mg protein/mL. The reaction was started by the addition of 90 μL of NADP cofactor solution and stopped by the addition of 300 μL of stop solution (acetonitrile at 4°C, including 100 ng/mL tolbutamide as an internal standard) after 20 min of incubation. The samples were shaken for 5 min and then centrifuged for 20 min at 1500 g. A 100 μL aliquot of the supernatant was transferred to eight new 96-well plates with 300 μL of HPLC water and centrifuged at 1500 g for LC-MS/MS analysis (Shimadzu LC 10-AD−API 4000). An injection volume of 10 μL was added to a Phenomenex Synergi C18 column eluting with formic acid in water or acetonitrile at a flow rate of 800 μL/min. The percent loss of parent compound was calculated from the peak area ratio of the analyte/internal standard. Compounds and positive controls were tested in duplicate.

CT26 tumor cells = assay: AH1 vaccination and CT26 tumor challenge; assay type: in vivo, BALB/c mice; conditions: AH1 in IFA, peptide 10 nanomol/mice/day i.p. 10 days, challenge 10^6 CT26 cells s.c. day 10
Procedure: In those experiments, BALB/c mice were immunized with peptide AH1 emulsified in IFA and treated daily with saline or with 50 nanomol/mice/day of peptide P60 i.p. from day 0 to day 9 after immunization. To study the efficacy of CM-1315, our optimized version of P60, mice immunized with AH1 were treated with 10 nanomol/mice/day of P60 or CM-1315 and challenged at day 10 by s.c. injection with 10^6 CT26 tumor cells (instead of 5 × 10^5 cells used in our previous study). As control, groups of mice were injected with AH1 alone or left untreated.
For tumor rejection experiments, Hepa-129 cells (10^6 cells/mouse), were injected subcutaneously (sc) in C3H/HeN mice (n = 6). Ten days later, when the tumor reached 5 mm in diameter, mice were randomly divided into different experimental groups. A group of mice were treated i.p. with anti-PD1 antibodies (50 μg/mouse). Antibody administration was repeated one week after this first administration. A group of mice treated with anti-PD1 also received the cyclic peptide CM-1215 from days 10 to 20 (50 μg/mice/day). Tumor size, presented as the average of two perpendicular diameters (millimetres), was measured at regular intervals. Mice were sacrificed when the mean tumor diameter was greater than 20 mm. […] Tumor size was monitored twice a week with a calliper and it was expressed according to the formula V = (length × width^2)/2. […]

CD4+CD25-ve splenocytes = assay: Effector T cells alone stimulated with anti-CD3: proliferation, IL-2 and IFN-γ; assay type: cell-based; conditions: anti-CD3 stimulation, no Treg
From the text: as §1, §2, §3

[3] = Metabolic stability in human liver microsomes; assay type: in vitro ADME; conditions: 1 μM, estimated by first order kinetics
Procedure: as §4

Compound: CSCC[C@@H]1NC(=O)[C@H](C)NC(=O)[C@H](Cc2ccccc2)NC(=O)[C@H](Cc2ccccc2)NC(=O)[C@@H]2CCCN2C(=O)[C@H](Cc2c[nH]c3ccccc23)NC(=O)[C@H](CCSC)NC(=O)[C@H](CCCCN)NC(=O)[C@H](CCCNC(=N)N)NC(=O)[C@H](Cc2ccccc2)NC(=O)[C@H](C)NC(=O)[C@H](CCC(N)=O)NC(=O)[C@H](Cc2ccccc2)NC(=O)[C@@H](C)NC(=O)[C@H](CCCNC(=N)N)NC1=O [CM-1315] (cyclo(R[dA]FQAFRKMWPFFAM))
- Inhibition of suppressive activity of pre-treated Treg (in words) (Treg cells): able to inhibit significantly the suppressive activity of Treg
- Number of AH1-specific IFN-γ producing cells (in words) [1]: significantly improved this response
- half-life [2]: ~60 min
- Protection against CT26 tumor challenge (in words) (CT26 tumor cells): remained protected against challenge with CT26 tumor cells
- T cell proliferation and IL-2, IFN-γ production of effector T cells (in words) (CD4+CD25-ve splenocytes): more active than P60
- half-life [3]: ~60 min
